In patent US20250066328A1, “PARP7 INHIBITORS” (Gilead Sciences, Inc., priority 2023, published 2025):

System: STAT1 (phosphorylated at Tyr701) in NCI-H1373 cells
Test: Phospho-STAT1 (Tyr701) LANCE Ultra TR-FRET detection assay in NCI-H1373 cells
Format: cell-based
Conditions: Homo sapiens, NCI-H1373, 48 h, 48 hours incubation, induction of pSTAT1, normalized to 10 uM positive control and DMSO, 4-parameter fit, read-out: NH1373 pSTAT1 EC50
Experimental: Phospho-STAT1 (Tyr701 LANCE Ultra TR-FRET Detection Assay
LANCE Ultra phospho-STAT1 (Tyr701) kits are designed for the detection of phosphorylated STAT1 in cell lysates using a simple, homogeneous LANCE Ultra sandwich assay (Cat. #TRF4028M). This assay is intended for assessing compound induction of endogenous levels of cellular STAT1 (phosphorylated at Tyr701) in NCI-H1373 cells. The NCI-H1373 cells are cultured in RPMI 1640 media containing 10% heat inactivated FBS, GlutaMAX, 1% Penicillin-Streptomycin. An Echo acoustic liquid handler is used to transfer 60 nanoliters of compound dilutions using the Echo Qualified, 384-well polypropylene microplate clear flat bottom source plates into a Greiner (#781080) cell culture microplate. NCI-H1373 cells are seeded into these compound-spotted culture plates at 30,000 cells/well in a 60 uL volume in growth media. The plates are incubated in a 5% CO2 humidified incubator at 37° C. for 48 hours. […] Briefly, […] of supplemented lysis buffer is added to each well and allowed to shake for 1 hour at 400 rpm. Next, 5 ul of remixed antibody solutions (vol/vol) prepared in detection buffer are added to each well and allowed to incubate at room temperature overnight. After spinning the plate down at 300 rpm for 1 min, the plate is read on an EnVision plate reader set up for Eu^3+ Cryptate and fluorescence emission is measured at two different wavelengths (665 nm and 620 nm). The HTRF ratio is then calculated ([…]) for each well to determine the amount of pSTAT1 in the cell lysate, and the data is then normalized to 10 uM (S)-5-((1-(3-oxo-3-(4-(5-(trifluoromethyl)pyrimidin-2-yl)piperazin-1-yl)propoxy)propan-2-yl)amino)-4-(trifluoromethyl)pyridazin-3(2H)-one positive and DMSO negative controls. The values were then plotted as a function of compound concentration and a 4-parameter fit was applied to derive the EC50 values.

Compound | EC50 [nM]
C[C@@H](C[C@H](O)Cn1ccc2cc(-c3nc4ccccn4n3)c(F)cc2c1=O)Nc1cn[nH]c(=O)c1C(F)(F)F (single isomer, unassigned) [Example 23] | 7.18
C[C@@H](C[C@@H](F)Cn1ccc2cc(-c3ncc(OCC#N)cn3)c(F)cc2c1=O)Nc1cn[nH]c(=O)c1C(F)(F)F [Example 78] | 192
C[C@@H](C[C@@H](F)Cn1ccc2cc(-c3ncc(C(F)F)cn3)c(F)c(F)c2c1=O)Nc1cn[nH]c(=O)c1C(F)(F)F [Example 100] | 1.05
C[C@@H](C[C@@H](F)Cn1cc(F)c2cc(-c3ncc(C(C)(C)O)cn3)c(F)cc2c1=O)Nc1cn[nH]c(=O)c1C(F)(F)F [Example 26] | 3.84
C[C@@H](CC(F)Cn1ccc2cc(-c3ncc(C(C)(C)O)cn3)c(F)cc2c1=O)Oc1cn[nH]c(=O)c1C(F)(F)F (stereo partly shown) [Example 37] | 4.11
C[C@@H](C[C@@H](F)Cn1ccc2cc(-c3ncc(C(F)(F)F)cn3)c(F)c(F)c2c1=O)Oc1cn[nH]c(=O)c1C(F)(F)F [Example 47] | 0.814
C[C@@H](C[C@@H](F)Cn1ccc2cc(-c3ccc(C(F)(F)F)cn3)c(F)cc2c1=O)Nc1cn[nH]c(=O)c1C(F)(F)F [Example 76] | 2.59
C[C@@H](C[C@@H](F)Cn1cnc2cc(-c3ncc(C(F)F)c(N)n3)c(F)cc2c1=O)Nc1cn[nH]c(=O)c1C(F)(F)F [Example 69] | 19
C[C@@H](C[C@@H](F)Cn1ccc2cc(-c3ncc([C@@](C)(O)C(F)F)cn3)c(F)cc2c1=O)Nc1cn[nH]c(=O)c1C(F)(F)F [Example 86] | 10.1
C[C@@H](C[C@H](F)Cn1cc(F)c2cc(-c3ncc(C(F)(F)F)cn3)c(F)cc2c1=O)Oc1cn[nH]c(=O)c1C(F)(F)F [Example 65] | 2.85
C[C@@H](CC(F)Cn1cnc2cc(-c3ncc(C(F)(F)F)cn3)c(F)cc2c1=O)Oc1cn[nH]c(=O)c1C(F)(F)F (stereo partly shown) [Example 36] | 10.8
C[C@@H](C[C@@H](F)Cn1ccc2cc(-c3cc[nH]n3)c(F)cc2c1=O)Nc1cn[nH]c(=O)c1C(F)(F)F [Example 73] | 136
C[C@@H](C[C@@H](F)Cn1ccc2cc(-c3ncccn3)c(F)cc2c1=O)Nc1cn[nH]c(=O)c1C(F)(F)F [Example 109] | 5.63
O=c1[nH]ncc(NC(COC(F)F)C[C@@H](F)Cn2ccc3cc(-c4ncc(C(F)(F)F)cn4)c(F)cc3c2=O)c1C(F)(F)F (stereo partly drawn) [Example 126, 2-[(2R)-5-(difluoromethoxy)-2-fluoro-4-[[6-oxo-5-(trifluoromethyl)-1H-pyridazin-4-yl]amino]pentyl]-7-fluoro-6-[5-(trifluoromethyl)pyrimidin-2-yl]isoquinolin-1-one] | 3.3
CC(C)(O)c1cnc(-c2cc3ccn(CCCC(COC(F)F)Oc4cn[nH]c(=O)c4C(F)(F)F)c(=O)c3cc2F)nc1 (stereo not shown) [Example 33, 2-(5-(difluoromethoxy)-4-((6-oxo-5-(trifluoromethyl)-1,6-dihydropyridazin-4-yl)oxy)pentyl)-7-fluoro-6-(5-(2-hydroxypropan-2-yl)pyrimidin-2-yl)isoquinolin-1(2H)-one] | 23.3
C[C@@H](CC(F)Cn1ccc2cc(-c3ncc(C(F)(F)F)cn3)c(F)cc2c1=O)Nc1cn[nH]c(=O)c1C(F)(F)F (stereo partly drawn) [Example 1, 7-fluoro-2-[(4S)-2-fluoro-4-[[6-oxo-5-(trifluoromethyl)-1H-pyridazin-4-yl]amino]pentyl]-6-[5-(trifluoromethyl)pyrimidin-2-yl]isoquinolin-1-one] | 1.88
C[C@@H](C[C@@H](F)Cn1ccc2cc(-c3ncc(C(F)F)cn3)c(F)cc2c1=O)Nc1cn[nH]c(=O)c1C(F)(F)F (single isomer, unassigned) [Example 4] | 1.08
C[C@@H](C[C@@H](F)Cn1ccc2cc(-c3ncc(C(F)F)c(N)n3)c(F)cc2c1=O)Oc1cn[nH]c(=O)c1C(F)(F)F (single isomer, unassigned) [Example 14] | 8.34
C[C@@H](C[C@@H](F)Cn1ccc2cc(-c3ncc([C@@H](O)C(F)F)cn3)c(F)cc2c1=O)Nc1cn[nH]c(=O)c1C(F)(F)F [Example 80] | 7.89
C[C@@H](C[C@@H](F)Cn1ccc2cc(-c3ccccn3)c(F)cc2c1=O)Nc1cn[nH]c(=O)c1C(F)(F)F [Example 74] | 6.56
O=c1[nH]ncc(N[C@@H](CO)C[C@@H](F)Cn2ccc3cc(-c4ncc(C(F)(F)F)cn4)c(F)cc3c2=O)c1C(F)(F)F [Example 123, 7-fluoro-2-((2R,4R)-2-fluoro-5-hydroxy-4-((6-oxo-5-(trifluoromethyl)-1,6-dihydropyridazin-4-yl)amino)pentyl)-6-(5-(trifluoromethyl)pyrimidin-2-yl)isoquinolin-1(2H)-one] | 16.2
C[C@@H](C[C@@H](F)Cn1ccc2cc(-c3ncco3)c(F)cc2c1=O)Nc1cn[nH]c(=O)c1C(F)(F)F [Example 102] | 170

Compound | EC50 [nM]
C[C@@H](C[C@@H](F)Cn1ccc2cc(-c3ncc(C(C)(C)O)cn3)c(F)cc2c1=O)Nc1cn[nH]c(=O)c1C(F)(F)F (single isomer, unassigned) [Example 8] | 3.55
C[C@@H](C[C@@H](F)Cn1cc(F)c2cc(-c3ncc(C(F)F)c(N)n3)c(F)cc2c1=O)Oc1cn[nH]c(=O)c1C(F)(F)F [Example 54] | 23.7
C[C@@H](C[C@@H](F)Cn1cc(F)c2cc(-c3ncc(C(F)F)cn3)c(F)cc2c1=O)Oc1cn[nH]c(=O)c1C(F)(F)F [Example 52] | 67.9
O=c1[nH]ncc(O[C@H](CCCn2ccc3cc(-c4ncc(C(F)(F)F)cn4)c(F)cc3c2=O)COC(F)F)c1C(F)(F)F (single isomer, unassigned) [Example 119] | 16.1
Nc1nc(-c2cc3ccn(CC(F)CC(COC(F)F)Nc4cn[nH]c(=O)c4C(F)(F)F)c(=O)c3cc2F)ncc1C(F)F (stereo not shown) [Example 127] | 6.55
C[C@@H](C[C@@H](F)Cn1cc(F)c2cc(-c3ncc(C(F)(F)F)cn3)c(F)cc2c1=O)Nc1cn[nH]c(=O)c1C(F)(F)F [Example 30] | 1.54
C[C@@H](CC(F)Cn1ccc2cc(-c3ncc(C(F)(F)F)cn3)c(F)cc2c1=O)Oc1cn[nH]c(=O)c1C(F)(F)F (stereo partly drawn) [Example 11, 7-fluoro-2-((4S)-2-fluoro-4-((6-oxo-5-(trifluoromethyl)-1,6-dihydropyridazin-4-yl)oxy)pentyl)-6-(5-(trifluoromethyl)pyrimidin-2-yl)isoquinolin-1(2H)-one] | 3.61
C[C@@H](C[C@@H](F)Cn1cc(F)c2cc(-c3ncc(C(C)(C)O)cn3)c(F)cc2c1=O)Oc1cn[nH]c(=O)c1C(F)(F)F (single isomer, unassigned) [Example 56] | 1.51
C[C@@H](C[C@@H](F)Cn1ccc2cc(-c3ncc4c(n3)COC4(C)C)c(F)cc2c1=O)Nc1cn[nH]c(=O)c1C(F)(F)F [Example 90] | 4.33
C[C@@H](C[C@H](F)Cn1ccc2cc(-c3ncc(C(F)(F)F)cn3)c(F)cc2c1=O)Oc1cn[nH]c(=O)c1C(F)(F)F [Example 13] | 1.32
COc1cnc(-c2cc3c(F)cn(C[C@H](F)C[C@H](C)Nc4cn[nH]c(=O)c4C(F)(F)F)c(=O)c3cc2F)nc1 [Example 25] | 1.01
C[C@@H](C[C@@H](F)Cn1ccc2cc(-c3ncc(C4CC4)cn3)c(F)cc2c1=O)Nc1cn[nH]c(=O)c1C(F)(F)F [Example 95] | 1.36
C[C@@H](C[C@@H](F)Cn1ccc2cc(-c3ncc(C(F)F)cn3)c(F)cc2c1=O)Oc1cn[nH]c(=O)c1C(F)(F)F [Example 48] | 1.05
COc1cnc(-c2cc3ccn(C[C@@H](F)C[C@H](C)Nc4cn[nH]c(=O)c4C(F)(F)F)c(=O)c3cc2F)nc1 (single isomer, unassigned) [Example 7] | 152
C[C@@H](C[C@@H](O)Cn1ccc2cc(-c3nc4ccccn4n3)c(F)cc2c1=O)Nc1cn[nH]c(=O)c1C(F)(F)F (single isomer, unassigned) [Example 22] | 2.7
C[C@@H](C[C@@H](F)Cn1cnc2cc(-c3ncc(C(F)F)cn3)c(F)cc2c1=O)Nc1cn[nH]c(=O)c1C(F)(F)F [Example 70] | 3.31
C[C@@H](C[C@@H](F)Cn1ccc2cc(-c3ncc(C(C)(C)O)cn3)c(F)c(F)c2c1=O)Nc1cn[nH]c(=O)c1C(F)(F)F [Example 28] | 6.51
C[C@@H](C[C@@H](F)Cn1ccc2cc(-c3cc4c(cn3)C(F)(F)CC4)c(F)cc2c1=O)Nc1cn[nH]c(=O)c1C(F)(F)F [Example 91] | 1.69
C[C@@H](C[C@H](F)Cn1cc(F)c2cc(-c3ncc(C(F)F)c(N)n3)c(F)cc2c1=O)Oc1cn[nH]c(=O)c1C(F)(F)F [Example 64] | 0.42
C[C@@H](C[C@@H](F)Cn1ccc2cc(-c3ncc4c(n3)NC(=O)C4(C)C)c(F)cc2c1=O)Nc1cn[nH]c(=O)c1C(F)(F)F [Example 89] | 12
C[C@@H](C[C@@H](F)Cn1ccc2cc(-c3ncc([C@@H](F)CF)cn3)c(F)cc2c1=O)Nc1cn[nH]c(=O)c1C(F)(F)F [Example 92] | 1.89
